These results are taken from publication PMC10224329, “Design, Synthesis, and Antiproliferative Activity of Benzopyran-4-One-Isoxazole Hybrid Compounds” (Molecules, 2023).

Assay [1] deals with T1, ABL1 (Homo sapiens, UniProt P00519).
T1 construct: purchased Reaction Biology Corporation
The assay is described as follows: Protein kinase assay (Reaction Biology). Format: biochemical. The conditions noted are these: duplicate, 200 μM ATP, read-out: % Enzyme Activity (Relative to DMSO Controls) ABL1. How it is done: (§1) Therefore, selected compound 5a was screened against several protein kinases to explore the potential of these hybrid compounds as kinase inhibitors. The screening of compound 5a was performed on a panel of 9 kinases, viz., ABL1, c-Kit, c-Src, CDK2/cyclin A1, CSK, EGFR, mTOR/FRAP1, p38a/MAPK14, PKCa, and PI3K, at a dose of 20 μM. The respective positive controls were used for each kinase, and the kinase reaction was performed at 200 μM ATP concentration for all the kinases except for PI3K, which was performed at 10 µM ATP (Table 2). […] It appeared that compound 5a containing a 3-position substitution with an isoxazole ring and a 4-position with a carbonyl group has a detrimental effect on kinase inhibition. Previously 3-substituted benzopyran compound with a short alkyl chain of urea (NH-CO-NH-Et/Me/iPr) was reported with Abl kinase inhibitory activity in the range of 4–27 μM [36]. […] Due to prominent antiproliferative activity, these compounds may have some other targets for anticancer activity.
(§2) Compound 5a was tested at a single dose of 20 μM against 9 kinases, viz., Abl1, c-Kit, c-Src, CDK2/cyclin A1, CSK, EGFR, mTOR/FRAP1, p38a/MAPK14, PKCa, and PI3K using our previously reported protocol in duplicate by Reaction Biology Corporation. The respective positive controls, e.g., staurosporine for all the kinases, except SB202190 for P38a/MAP14 and P1-103 for mTOR/FRAP1, were used, and the kinase reaction was performed at 200 μM ATP concentration for all the kinases except for PI3K, which was performed at 10 µM ATP.

The target of assay [2] is T2, CDK2/cyclin A1 (Homo sapiens, UniProt P24941).
T2 construct: purchased Reaction Biology Corporation
Description: Protein kinase assay (Reaction Biology). It counts as biochemical. The conditions noted are these: duplicate, 200 μM ATP, read-out: % Enzyme Activity (Relative to DMSO Controls) CDK2/cyclin A1. How it is done: as §1, §2

Assay [3] concerns the target T3, CSK (Homo sapiens, UniProt P41240).
T3 construct: purchased Reaction Biology Corporation
The assay is described as follows: Protein kinase assay (Reaction Biology). Format: biochemical. The conditions noted are these: duplicate, 200 μM ATP, read-out: % Enzyme Activity (Relative to DMSO Controls) CSK. How it is done: as §1, §2

For assay [4], the target named is T4, EGFR (Homo sapiens, UniProt P00533).
T4 construct: purchased Reaction Biology Corporation
Description: Protein kinase assay (Reaction Biology). It counts as biochemical. The conditions noted are these: duplicate, 200 μM ATP, read-out: % Enzyme Activity (Relative to DMSO Controls) EGFR. How it is done:
as §1, §2

The target of assay [5] is T5, PI3K (p110a/p65a) (Homo sapiens, UniProt P42336).
T5 construct: purchased Reaction Biology Corporation
Description: Protein kinase assay (Reaction Biology). Format: biochemical. The conditions noted are these: duplicate, 10 µM ATP, read-out: % Enzyme Activity (Relative to DMSO Controls) PI3K (p110a/p65a). How it is done:
as §1, §2

Assay [6] concerns the target T6, PKCa (Homo sapiens, UniProt P17252).
T6 construct: purchased Reaction Biology Corporation
Description: Protein kinase assay (Reaction Biology). Format: biochemical. The conditions noted are these: duplicate, 200 μM ATP, read-out: % Enzyme Activity (Relative to DMSO Controls) PKCa. As to the method: as §1, §2

Assay [7] has as its target T7, c-Kit (Homo sapiens, UniProt P10721).
T7 construct: purchased Reaction Biology Corporation
The assay is described as follows: Protein kinase assay (Reaction Biology). The conditions noted are these: duplicate, 200 μM ATP, read-out: % Enzyme Activity (Relative to DMSO Controls) c-Kit. Format: biochemical. How it is done:
as §1, §2

Assay [8] addresses T8, c-Src (Homo sapiens, UniProt P12931).
T8 construct: purchased Reaction Biology Corporation
The assay is described as follows: Protein kinase assay (Reaction Biology). The conditions noted are these: duplicate, 200 μM ATP, read-out: % Enzyme Activity (Relative to DMSO Controls) c-Src. Format: biochemical. How it is done:
as §1, §2

Assay [9] concerns the target T9, mTOR/FRAP1 (Homo sapiens, UniProt P42345).
T9 construct: purchased Reaction Biology Corporation
Description: Protein kinase assay (Reaction Biology). It counts as biochemical. The conditions noted are these: duplicate, 200 μM ATP, read-out: % Enzyme Activity (Relative to DMSO Controls) mTOR/FRAP1. How it is done: as §1, §2

Assay [10] concerns the target T10, p38a/MAPK14 (Homo sapiens, UniProt Q16539).
T10 construct: purchased Reaction Biology Corporation
Description: Protein kinase assay (Reaction Biology). The conditions noted are these: duplicate, 200 μM ATP, read-out: % Enzyme Activity (Relative to DMSO Controls) p38a/MAPK14. It counts as biochemical. How it is done:
as §1, §2

Assay [11] relates to MDA-MB-231 cells. The assay is described as follows: Annexin V-FITC/PI apoptosis assay by flow cytometry. It counts as cell-based, human. How it is done:
In accordance with the MTS assay, compound 5a had promising antiproliferative action. Therefore, we attempted to study the mechanism triggering cell death. […] MDA-MB-231 cells were treated with 5 μM of compound 5a and Dox (5 μM) as a positive control and incubated for 72 h, then double-stained carefully by membrane-linked protein Annexin-V fluorescein isothiocyanate (FITC) and propidium iodide (PI) for flow cytometry analysis. Normally, in the early stages of apoptosis, phosphatidylserine flips from the inner cell membrane to the surface of the cell membrane. […] PI is a nucleic acid dye that can only cross the membrane of advanced apoptosis and necrotic cells and redden the nucleus. Consequently, when the treated cells are double stained by the two fluorescent dyes, early and late apoptosis and necrotic cells can be clearly distinguished. […] These findings illustrated that compound 5a mainly leads to the early apoptosis of MDA-MB-231 cells.
The assay was detected using a commercially available kit (FITC Annexin V Apoptosis Detection Kit II, BD Biosciences, San Jose, CA, USA) per the manufacturer’s instructions. Briefly, MDA-MB-231 cells were seeded in 6-well plates at a concentration of 1 × 10^6 cells/well for 24 h; after that, cells were treated with 5a (5 µM) for 72 h. Dox (5 µM) was used as a positive control. After the treatment period, cells were washed with cold phosphate-buffered saline (PBS) twice. The cells were collected after trypsin treatment and centrifugated to get a pellet, and a binding buffer (1X) was used to resuspend the cells. Annexin V (5 μL) and propidium iodide (PI) (5 μL) were mixed with 100 μL of the suspended cells (1 × 10^6 cells/mL), followed by 15 min incubation at room temperature in the dark. The mixture was diluted by adding 400 μL of 1× binding buffer, and the cells were analyzed using flow cytometry, FACS Verse (BD Biosciences, USA). The experiment was repeated three times independently.
(Flow cytometry measures light scatter and fluorescence of single cells or particles in a stream.)

T1 sequence (P00519 whole entry): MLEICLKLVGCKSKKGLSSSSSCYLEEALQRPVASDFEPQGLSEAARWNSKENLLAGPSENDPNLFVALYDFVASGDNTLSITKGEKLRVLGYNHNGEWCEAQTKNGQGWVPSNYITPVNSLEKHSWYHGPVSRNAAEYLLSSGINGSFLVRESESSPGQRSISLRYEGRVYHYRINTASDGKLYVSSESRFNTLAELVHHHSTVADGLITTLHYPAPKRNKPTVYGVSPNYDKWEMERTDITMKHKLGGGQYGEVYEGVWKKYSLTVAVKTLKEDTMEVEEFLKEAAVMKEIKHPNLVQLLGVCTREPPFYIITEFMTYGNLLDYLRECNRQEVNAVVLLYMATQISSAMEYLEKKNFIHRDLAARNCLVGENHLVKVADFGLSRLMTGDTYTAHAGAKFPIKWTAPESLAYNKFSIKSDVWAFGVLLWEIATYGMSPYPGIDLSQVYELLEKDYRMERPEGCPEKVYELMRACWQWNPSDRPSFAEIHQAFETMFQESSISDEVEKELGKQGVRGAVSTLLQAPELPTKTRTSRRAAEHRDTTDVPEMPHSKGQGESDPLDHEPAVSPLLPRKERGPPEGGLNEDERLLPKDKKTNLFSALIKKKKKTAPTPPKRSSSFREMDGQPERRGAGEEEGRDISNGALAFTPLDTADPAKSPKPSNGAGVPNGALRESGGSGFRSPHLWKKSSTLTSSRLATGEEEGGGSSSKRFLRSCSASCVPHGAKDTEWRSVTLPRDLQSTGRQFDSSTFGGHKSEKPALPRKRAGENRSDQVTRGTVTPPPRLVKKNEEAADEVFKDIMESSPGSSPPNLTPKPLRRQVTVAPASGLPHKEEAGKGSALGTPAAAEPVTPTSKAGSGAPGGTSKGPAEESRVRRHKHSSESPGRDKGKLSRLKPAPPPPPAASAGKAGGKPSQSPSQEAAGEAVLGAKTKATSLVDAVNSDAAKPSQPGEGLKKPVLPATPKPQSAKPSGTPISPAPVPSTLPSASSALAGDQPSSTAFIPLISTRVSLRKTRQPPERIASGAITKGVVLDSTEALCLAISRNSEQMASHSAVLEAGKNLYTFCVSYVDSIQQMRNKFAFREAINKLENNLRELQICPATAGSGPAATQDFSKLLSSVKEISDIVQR
T3 sequence (P41240 whole entry): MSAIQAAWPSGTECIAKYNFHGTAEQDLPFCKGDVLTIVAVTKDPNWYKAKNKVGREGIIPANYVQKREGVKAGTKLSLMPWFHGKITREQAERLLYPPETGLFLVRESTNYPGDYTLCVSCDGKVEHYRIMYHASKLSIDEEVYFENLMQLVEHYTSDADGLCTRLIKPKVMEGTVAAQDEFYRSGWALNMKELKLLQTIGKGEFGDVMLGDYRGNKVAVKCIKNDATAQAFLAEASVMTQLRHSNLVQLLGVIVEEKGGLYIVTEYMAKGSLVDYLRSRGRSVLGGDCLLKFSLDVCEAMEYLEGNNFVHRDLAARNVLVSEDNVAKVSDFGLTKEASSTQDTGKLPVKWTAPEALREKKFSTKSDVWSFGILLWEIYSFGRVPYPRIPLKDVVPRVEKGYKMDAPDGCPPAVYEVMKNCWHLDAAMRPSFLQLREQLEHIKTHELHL
T7 sequence (P10721 26-976): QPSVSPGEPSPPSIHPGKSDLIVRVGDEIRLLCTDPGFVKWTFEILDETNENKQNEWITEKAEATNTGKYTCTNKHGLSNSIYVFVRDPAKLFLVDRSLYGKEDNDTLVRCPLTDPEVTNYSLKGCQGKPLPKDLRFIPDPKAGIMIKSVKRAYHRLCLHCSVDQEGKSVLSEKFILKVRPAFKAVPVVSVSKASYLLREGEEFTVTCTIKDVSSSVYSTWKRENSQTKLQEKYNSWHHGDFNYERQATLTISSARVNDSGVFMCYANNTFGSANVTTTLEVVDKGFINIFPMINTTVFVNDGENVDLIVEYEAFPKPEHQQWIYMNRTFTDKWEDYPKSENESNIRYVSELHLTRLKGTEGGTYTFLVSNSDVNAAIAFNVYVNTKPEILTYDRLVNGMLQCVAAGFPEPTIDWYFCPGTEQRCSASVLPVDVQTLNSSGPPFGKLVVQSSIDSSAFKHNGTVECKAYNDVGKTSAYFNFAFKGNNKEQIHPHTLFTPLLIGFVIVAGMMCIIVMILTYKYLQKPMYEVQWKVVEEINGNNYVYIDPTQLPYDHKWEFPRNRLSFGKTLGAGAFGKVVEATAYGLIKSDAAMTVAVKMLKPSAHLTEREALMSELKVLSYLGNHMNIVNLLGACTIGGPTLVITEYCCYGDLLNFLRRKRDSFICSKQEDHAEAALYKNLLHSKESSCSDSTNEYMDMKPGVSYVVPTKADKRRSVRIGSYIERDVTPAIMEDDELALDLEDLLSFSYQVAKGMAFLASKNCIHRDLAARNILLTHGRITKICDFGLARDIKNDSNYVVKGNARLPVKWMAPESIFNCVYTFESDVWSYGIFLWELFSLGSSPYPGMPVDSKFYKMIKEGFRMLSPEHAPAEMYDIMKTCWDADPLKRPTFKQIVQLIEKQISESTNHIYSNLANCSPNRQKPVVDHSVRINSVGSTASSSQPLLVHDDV
T8 sequence (P12931 whole entry): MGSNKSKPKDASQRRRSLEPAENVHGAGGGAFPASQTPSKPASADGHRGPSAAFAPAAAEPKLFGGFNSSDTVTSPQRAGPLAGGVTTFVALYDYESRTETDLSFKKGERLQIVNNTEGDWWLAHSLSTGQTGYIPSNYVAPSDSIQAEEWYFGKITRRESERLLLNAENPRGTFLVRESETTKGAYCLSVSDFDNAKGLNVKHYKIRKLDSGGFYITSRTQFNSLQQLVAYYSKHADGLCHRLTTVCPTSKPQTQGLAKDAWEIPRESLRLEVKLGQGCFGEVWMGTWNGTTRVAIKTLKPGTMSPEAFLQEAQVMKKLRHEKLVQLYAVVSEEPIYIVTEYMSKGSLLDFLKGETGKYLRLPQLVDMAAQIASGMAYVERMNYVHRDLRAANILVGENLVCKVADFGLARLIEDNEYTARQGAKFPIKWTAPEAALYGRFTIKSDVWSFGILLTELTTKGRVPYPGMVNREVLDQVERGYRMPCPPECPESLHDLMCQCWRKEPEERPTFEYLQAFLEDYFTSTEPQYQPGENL
T10 sequence (Q16539 whole entry): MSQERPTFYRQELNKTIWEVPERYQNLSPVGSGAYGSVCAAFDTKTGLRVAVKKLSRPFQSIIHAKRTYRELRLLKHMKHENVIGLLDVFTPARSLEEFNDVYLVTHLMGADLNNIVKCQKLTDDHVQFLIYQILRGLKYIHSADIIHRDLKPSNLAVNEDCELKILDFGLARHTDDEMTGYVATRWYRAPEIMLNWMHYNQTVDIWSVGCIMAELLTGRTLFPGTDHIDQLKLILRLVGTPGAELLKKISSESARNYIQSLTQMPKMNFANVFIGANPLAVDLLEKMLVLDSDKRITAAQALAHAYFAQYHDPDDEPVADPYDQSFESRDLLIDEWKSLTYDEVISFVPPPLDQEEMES

As for `Cc1noc(C)c1C(=O)OCc1coc2ccccc2c1=O` [Compound 5a, (4-Oxo-4H-1-benzopyran-3-yl)methyl 3,5-dimethylisoxazole-4-carboxylate], the remaining activity at 20 µM in [1] turned out to be 96.9%; in [2], 105%; in assay [3], 93%; in assay [4], 99.8%; in assay [5] it was 110%; in [6] it was 103%. The remaining activity at 20 µM in [7] came out at 95.3%; in [8], 113%; in [9] it was 112%; in assay [10] it was 83.1%. Moreover, in assay [11] (5 μM concentration, compared to untreated cells), the “induced apoptosis in MDA-MB-231” value is on record as 50.8%. In addition, the “Early Apoptosis” value in assay [11] (MDA-MB-231, 5 μM, 72 h) was 47.52%. Also, the “Late Apoptosis” value in assay [11] (MDA-MB-231, 5 μM, 72 h) is recorded as 3.28%.
